Results published in US8633236B2, “Compounds, compositions and methods” (Cytokinetics, Inc., priority 2002, dated 2014).

Columns and labels:
[1] = Potency comparison of separated enantiomers (test not specified); details: (R)- versus (S)-enantiomer separated on Chiralpak AD
Method: An enriched 3:1 R:S mixture of chromenone enantiomers was separated into its pure enantiomers by chiral chromatography with the following conditions: Column—Chiralpak AD, 250×4.6 mm (Diacel Inc.). Sample—22.5 mg/ml in 1:1 i-PrOH:hexanes. Conditions—40 min at isocratic 50% i-PrOH in Hexanes, (S)-enantiomer elutes at 18.35 min, (R)-enantiomer elutes at 26.87 min.

[2] = system: A549 cells; details: cited from earlier work

SMILES | relative potency of enantiomers [1] | GI50 [2]
Cc1ccc(C(=O)N(CCCN)[C@@H](c2oc3cc(Cl)ccc3c(=O)c2Cc2ccccc2)C(C)C)cc1 (single isomer, unassigned) [Example 2 (R)-enantiomer] | significantly more potent than the (S)-enantiomer | –
O=c1[nH]cc(F)c(=O)[nH]1 [5-fluorouracil] | – | 1000 nM
COc1cccc2c1C(=O)c1c(O)c3c(c(O)c1C2=O)C[C@@](O)(C(=O)CO)C[C@@H]3O[C@H]1C[C@H](N)[C@H](O)[C@H](C)O1 [doxorubicin] | – | 63 nM
NC(=O)NO [hydroxyurea] | – | 500000 nM
CC(=O)O[C@H]1C(=O)[C@@]2(C)[C@H]([C@H](OC(=O)c3ccccc3)[C@]3(O)C[C@H](OC(=O)[C@H](O)[C@@H](NC(=O)c4ccccc4)c4ccccc4)C(C)=C1C3(C)C)[C@]1(OC(C)=O)CO[C@@H]1C[C@@H]2O [paclitaxel] | – | 4 nM
